Patent US20240327406A1, “POTASSIUM CHANNEL MODULATORS” (Autifony Therapeutics Limited, priority 2021, published 2024)
“And” between values parts separate entries of the source, which are not always exact repeats. Equal entries are not always repeated. Where two headings read alike, the source gives them in different places.

Biological target: T1, human Kv3.1 channels (hKv3.1) (Homo sapiens, UniProt P48547)
T1 sequence (P48547 1-501 limits assumed): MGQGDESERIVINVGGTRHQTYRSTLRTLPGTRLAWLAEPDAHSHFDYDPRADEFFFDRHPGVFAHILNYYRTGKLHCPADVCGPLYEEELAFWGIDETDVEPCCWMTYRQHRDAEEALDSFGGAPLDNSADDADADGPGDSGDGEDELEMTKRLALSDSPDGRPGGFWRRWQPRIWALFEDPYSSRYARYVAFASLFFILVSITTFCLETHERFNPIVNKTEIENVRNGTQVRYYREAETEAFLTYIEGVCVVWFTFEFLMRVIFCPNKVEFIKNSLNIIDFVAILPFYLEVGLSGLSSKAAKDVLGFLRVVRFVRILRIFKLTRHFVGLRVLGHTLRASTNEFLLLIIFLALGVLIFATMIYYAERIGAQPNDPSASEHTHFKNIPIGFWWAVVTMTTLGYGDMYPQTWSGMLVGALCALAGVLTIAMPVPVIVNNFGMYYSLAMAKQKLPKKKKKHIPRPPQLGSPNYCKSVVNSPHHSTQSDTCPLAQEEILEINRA
Assay: Measurement of Kv3 channel modulation: Kv3.1 assay (IonWorks Quattro whole-cell electrophysiology)
Assay type: cell-based
Settings: for Kv3.1 max R %: normalised to maximum effect of reference compound (50 microM); for EC50: read-out: Kv3.1 pEC50 (converted)

[1] = Table 2, Example compounds, rounded to one decimal place, some compounds with two data sets (n given in cell)

SMILES | Kv3.1 max R % (Table 2, Example compounds) | EC50 [1] [µM] | EC50 (Table 5, Example compounds) [µM]
Cc1ccc(Oc2ncc(-n3c(=O)[nH]c4cccnc43)cn2)cc1OC(F)(F)F [Example 32, 3-[2-[4-methyl-3-(trifluoromethoxy)phenoxy]pyrimidin-5-yl]-1H-imidazo[4,5-b]pyridin-2-one] | 174% | 1.58 | 1.58
Cc1ccc(Oc2ccc(-n3c(=O)[nH]c4cccnc43)cn2)cc1OC(F)(F)F [Example 4, 3-[6-[4-methyl-3-(trifluoromethoxy)phenoxy]-3-pyridyl]-1H-imidazo[4,5-b]pyridin-2-one] | 111% | 1.26 | 1.26
O=c1[nH]c2cccnc2n1-c1cnc(Oc2cccc(OC(F)(F)F)c2)nc1 [Example 17, 3-[2-[3-(trifluoromethoxy)phenoxy]pyrimidin-5-yl]-1H-imidazo[4,5-b]pyridin-2-one] | 103% and 125% | 1.26 | 1
